Data published in PubChem BioAssay AID330 (DTP/NCI, 2004).
Where “and” joins values, the source holds several entries; their conditions need not be identical. Identical values can stand only once. Inconclusive results and toxic doses are left out. The calls were made as follows: active = survival T/C of 150% or more; inactive = T/C below 125% in these data.

Test system: P388 leukemia ip, CD2F1 mice, survival T/C
Test: NCI In Vivo Anticancer Drug Screen. Data for tumor model P388 Leukemia (intraperitoneal) in CD2F1 (CDF1) mice
Settings: endpoint: median survival time, higher = longer survival
Method in brief: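 Mice carrying the transplanted tumor received test compound or vehicle. Survival was recorded in each group, and the value is the treated-group measurement divided by that of the vehicle-treated control group.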

[1] = dose: 60.0 mg/kg/injection, schedule: Q01DX005 (ip), vehicle: saline
[2] = dose: 120.0 mg/kg/injection, schedule: Q01DX005 (ip), vehicle: saline
[3] = dose: 240.0 mg/kg/injection, schedule: Q01DX005 (ip), vehicle: saline
[4] = dose: 100.0 mg/kg/injection, schedule: Q01DX001 (ip), vehicle: Klucel (hydroxypropylcellulose) (HPC)
[5] = dose: 50.0 mg/kg/injection, schedule: Q01DX005 (ip), vehicle: Klucel (hydroxypropylcellulose) (HPC)
[6] = dose: 60.0 mg/kg/injection, schedule: Q01DX005 (ip), vehicle: saline with Tween-80
[7] = dose: 120.0 mg/kg/injection, schedule: Q01DX005 (ip), vehicle: saline with Tween-80
[8] = dose: 240.0 mg/kg/injection, schedule: Q01DX005 (ip), vehicle: saline with Tween-80
[9] = dose: 12.5 mg/kg/injection, schedule: Q01DX009 (ip), vehicle: saline with Tween-80
[10] = dose: 25.0 mg/kg/injection, schedule: Q01DX009 (ip), vehicle: saline with Tween-80
[11] = dose: 50.0 mg/kg/injection, schedule: Q01DX009 (ip), vehicle: saline with Tween-80
[12] = dose: 200.0 mg/kg/injection, schedule: Q01DX001 (ip), vehicle: Klucel (hydroxypropylcellulose) (HPC)

Measured: T/C

CSCCC([NH-])C(=O)O.CSCCC([NH-])C(=O)O.[Cu+2] (stereo not given)
inactive: dose: 3.12 mg/kg/injection, schedule: Q01DX009 (ip), vehicle: saline 102 % of control | dose: 6.25 mg/kg/injection, schedule: Q01DX009 (ip), vehicle: Klucel (hydroxypropylcellulose) (HPC) 94 % of control | dose: 6.25 mg/kg/injection, schedule: Q01DX009 (ip), vehicle: saline 94 % of control | dose: 12.5 mg/kg/injection, schedule: Q01DX009 (ip), vehicle: Klucel (hydroxypropylcellulose) (HPC) 94 % of control | dose: 12.5 mg/kg/injection, schedule: Q01DX009 (ip), vehicle: saline 100 % of control

O=C(O)CNC1CCCCC1
inactive: [1] 95 % of control | [2] 92 % of control | [3] 87 % of control

O=C1C=C(Br)C(=O)c2c1[nH]c(=O)[nH]c2=O
inactive: dose: 8.0 mg/kg/injection, schedule: Q01DX005 (ip), vehicle: DMSO 117 % of control | dose: 16.0 mg/kg/injection, schedule: Q01DX005 (ip), vehicle: DMSO 107 % of control | dose: 32.0 mg/kg/injection, schedule: Q01DX005 (ip), vehicle: DMSO 95 % of control | dose: 64.0 mg/kg/injection, schedule: Q01DX005 (ip), vehicle: DMSO 107 % of control

C=C1C(=O)OC2/C=C(\C)CC(O)/C=C(\C)CC(OC(=O)C3(CO)OC3C)C12 (stereo not given)
inactive: dose: 25.0 mg/kg/injection, schedule: Q01DX001 (ip), vehicle: Klucel (hydroxypropylcellulose) (HPC) 113 % of control | dose: 50.0 mg/kg/injection, schedule: Q01DX001 (ip), vehicle: Klucel (hydroxypropylcellulose) (HPC) 101 % of control | [4] 108 % of control

CCCC(C)(C)c1cc(C(C)C)cc(C(C)(C)CCC)c1O
inactive: dose: 12.5 mg/kg/injection, schedule: Q01DX009 (ip), vehicle: other 100 % of control | dose: 25.0 mg/kg/injection, schedule: Q01DX009 (ip), vehicle: other 100 % of control | dose: 25.0 mg/kg/injection, schedule: Q01DX009 (ip), vehicle: saline + Tween-80 + alcohol 103 % of control | dose: 50.0 mg/kg/injection, schedule: Q01DX009 (ip), vehicle: other 106 % of control | dose: 50.0 mg/kg/injection, schedule: Q01DX009 (ip), vehicle: saline + Tween-80 + alcohol 101 % of control | dose: 100.0 mg/kg/injection, schedule: Q01DX009 (ip), vehicle: other 112 % of control | dose: 100.0 mg/kg/injection, schedule: Q01DX009 (ip), vehicle: saline + Tween-80 + alcohol 100 % of control | dose: 200.0 mg/kg/injection, schedule: Q01DX009 (ip), vehicle: saline + Tween-80 + alcohol 113 % of control

CCN(CC)c1cc(C(=O)O)cc(N(CC)CC)n1
inactive: dose: 6.25 mg/kg/injection, schedule: Q01DX005 (ip), vehicle: sodium bicarbonate 104 % of control | dose: 12.5 mg/kg/injection, schedule: Q01DX005 (ip), vehicle: Klucel (hydroxypropylcellulose) (HPC) 98 % of control and 100 % of control | dose: 12.5 mg/kg/injection, schedule: Q01DX005 (ip), vehicle: sodium bicarbonate 114 % of control | dose: 25.0 mg/kg/injection, schedule: Q01DX005 (ip), vehicle: Klucel (hydroxypropylcellulose) (HPC) 98 % of control and 106 % of control | dose: 25.0 mg/kg/injection, schedule: Q01DX005 (ip), vehicle: sodium bicarbonate 120 % of control | [5] 100 % of control and 120 % of control and 123 % of control | dose: 50.0 mg/kg/injection, schedule: Q01DX005 (ip), vehicle: sodium bicarbonate 121 % of control

O=C(CN1CCN(c2ccccc2)CC1)n1ccnc1
inactive: [6] 95 % of control | [7] 97 % of control | [8] 100 % of control

Nc1ccc2ccc(O)cc2c1
inactive: [9] 100 % of control | [10] 100 % of control | [11] 100 % of control | dose: 100.0 mg/kg/injection, schedule: Q01DX009 (ip), vehicle: saline with Tween-80 98 % of control

Cc1ccc(N=C(CC(C)C)C2C(=O)c3ccccc3C2=O)cc1
inactive: [5] 100 % of control | dose: 100.0 mg/kg/injection, schedule: Q01DX005 (ip), vehicle: Klucel (hydroxypropylcellulose) (HPC) 94 % of control | dose: 200.0 mg/kg/injection, schedule: Q01DX005 (ip), vehicle: Klucel (hydroxypropylcellulose) (HPC) 99 % of control

CC(=O)NC1C(NNC(=O)c2ccncc2)OC(CO)C(O)C1O (stereo not given)
inactive: dose: 50.0 mg/kg/injection, schedule: Q01DX005 (ip), vehicle: saline 100 % of control | dose: 100.0 mg/kg/injection, schedule: Q01DX005 (ip), vehicle: saline 96 % of control | dose: 200.0 mg/kg/injection, schedule: Q01DX005 (ip), vehicle: saline 104 % of control

CC(=O)OCC(=O)[C@@]1(O)CC[C@H]2[C@@H]3C[C@H](F)C4=CC(=O)CC[C@]4(C)[C@H]3[C@@H](O)C[C@@]21C
inactive: dose: 100.0 mg/kg/injection, schedule: Q04DX003 (ip), vehicle: saline 104 % of control | dose: 200.0 mg/kg/injection, schedule: Q04DX003 (ip), vehicle: saline 100 % of control | dose: 400.0 mg/kg/injection, schedule: Q04DX003 (ip), vehicle: saline 95 % of control

Cc1ccc(-c2n[nH]c(=O)c(C#N)c2-c2ccc(C)cc2)cc1
inactive: dose: 100.0 mg/kg/injection, schedule: Q04DX002 (ip), vehicle: saline with Tween-80 88 % of control | dose: 400.0 mg/kg/injection, schedule: Q04DX002 (ip), vehicle: saline with Tween-80 88 % of control

CC(=O)/C=C/N1CCOCC1
inactive: dose: 50.0 mg/kg/injection, schedule: Q01DX009 (ip), vehicle: saline 119 % of control | dose: 100.0 mg/kg/injection, schedule: Q01DX009 (ip), vehicle: saline 98 % of control | dose: 200.0 mg/kg/injection, schedule: Q01DX009 (ip), vehicle: saline 103 % of control

CN(C)N=Nc1ccc(N(C)C)cc1
inactive: dose: 0.39 mg/kg/injection, schedule: Q01DX009 (ip), vehicle: Klucel (hydroxypropylcellulose) (HPC) 121 % of control | dose: 0.78 mg/kg/injection, schedule: Q01DX009 (ip), vehicle: Klucel (hydroxypropylcellulose) (HPC) 113 % of control and 114 % of control | dose: 1.56 mg/kg/injection, schedule: Q01DX009 (ip), vehicle: Klucel (hydroxypropylcellulose) (HPC) 113 % of control and 120 % of control | dose: 3.13 mg/kg/injection, schedule: Q01DX009 (ip), vehicle: Klucel (hydroxypropylcellulose) (HPC) 103 % of control and 118 % of control

N#CC(NCCNC(C#N)c1ccccc1)c1ccccc1 (stereo not given)
inactive: [6] 96 % of control | [7] 90 % of control | [8] 88 % of control

Cc1nnc2c(N)nccn12
inactive: [4] 94 % of control | [12] 96 % of control

CC(=O)O[C@H]1C(=O)C=C[C@H](C)[C@@H]2CC[C@H](OC(C)(C)C)[C@@]12C
inactive: dose: 50.0 mg/kg/injection, schedule: Q01DX005 (ip), vehicle: saline with Tween-80 102 % of control | dose: 100.0 mg/kg/injection, schedule: Q01DX005 (ip), vehicle: saline with Tween-80 98 % of control | dose: 200.0 mg/kg/injection, schedule: Q01DX005 (ip), vehicle: saline with Tween-80 108 % of control

CC(C)Cc1cn(O)c2nc(=N)nc(N)c-2n1
inactive: [9] 100 % of control | [10] 93 % of control | [11] 101 % of control

COCC1CCOC(C(C)C)O1 (stereo not given)
inactive: [1] 101 % of control | [2] 100 % of control | [3] 100 % of control

c1ccc(C2c3ccccc3Nc3ccccc32)cc1
inactive: dose: 6.25 mg/kg/injection, schedule: Q04DX002 (ip), vehicle: saline with Tween-80 104 % of control | dose: 12.5 mg/kg/injection, schedule: Q04DX002 (ip), vehicle: saline with Tween-80 97 % of control | dose: 25.0 mg/kg/injection, schedule: Q04DX002 (ip), vehicle: saline with Tween-80 97 % of control

Clc1ccc(C(CCc2ccc(Br)cc2)Cn2ccnc2)c(Cl)c1 (stereo not given)
inactive: [10] 88 % of control | [11] 87 % of control

c1ccc2c3c(ccc2c1)OCN(C12CC4CC(CC(C4)C1)C2)C3
inactive: dose: 100.0 mg/kg/injection, schedule: Q04DX003 (ip), vehicle: saline with Tween-80 100 % of control | dose: 200.0 mg/kg/injection, schedule: Q04DX003 (ip), vehicle: saline with Tween-80 110 % of control | dose: 400.0 mg/kg/injection, schedule: Q04DX003 (ip), vehicle: saline with Tween-80 110 % of control

CC(C)(C)c1ccc2c(c1)C1=NC2=NC2=NC(=NC3=NC(=NC4=NC(=N1)c1ccc(C(C)(C)C)cc14)c1ccc(C(C)(C)C)cc13)c1ccc(C(C)(C)C)cc12
inactive: [4] 98 % of control | [12] 95 % of control | dose: 400.0 mg/kg/injection, schedule: Q01DX001 (ip), vehicle: Klucel (hydroxypropylcellulose) (HPC) 91 % of control
